From paper PMC11726150, “Pre‐ADMET studies of 5‐(3′,4′‐dihydroxyphenyl)‐γ‐valerolactone, the bioactive intestinal metabolite of proanthocyanidins” (Archiv Der Pharmazie, 2024)
Several values for one entry are separate records, joined by “and”; a condition that tells them apart may be missing. Equal entries are not always repeated. Structures can show the parent of a compound that is named as a salt.

What was measured:
[1] = tested on: Wt‐MDCK monolayers; test: In vitro transport study across 5‐day Wt‐MDCK monolayers; format: in vitro ADME, canine; conditions: Wt‐MDCK model, VL 50 μM dosed (VLS formed as metabolite), controls 10 μM, N = 4
Protocol: (§1) Caco2 cells between passage numbers 42–50 and MDCK cells between passage numbers 21–26 were used for transport studies; the assay was conducted as reported by Volpe^[ [33] ^] with slight modifications. Transport experiments were performed in 12‐well Transwell plates. Caco2 cells were seeded at a density of 60,000 cells/cm^2 and grown for 21 days, with change of media every 3 days, while MDCK cells were seeded at a density of 70,000 cells/cm^2 and grown for 5 days, changing the medium daily. The physiological and morphological formation of a confluent monolayer was evaluated by measuring the TEER value: Caco2 monolayers became confluent 1 week after seeding with TEER values greater than 450 Ω/cm^2, while MDCK monolayers became confluent 24 h after seeding with TEER values greater than 90 Ω/cm^2. Phenol red and serum‐free DMEM/F12 medium was used as transport buffer. For bidirectional transport, VL (50 μM) and control compound (propranolol and paclitaxel, 10 μM) were added to the apical side to determine apical to basolateral transport (A–B; absorptive direction) and to the basal side to determine basolateral to apical transport (B–A; secretory direction). The volume of the apical and basolateral chambers was 0.5 and 1.5 mL, respectively. Aliquots of 120 μL were taken from the basolateral (for A–B transport) or the apical (for B–A transport) chamber at 30, 60, 90, and 120 min. An equal volume was replaced with a transport buffer at every time point. At the beginning and at the end of the experiment, an aliquot was also taken from the apical or basolateral chamber for analysis of the drug. To determine the integrity of monolayers, TEER values were measured before and after the experiment. In addition, at the end of the experiment cells were collected and lysed to evaluate the compound intake. Briefly, cells were washed twice with cold PBS and 200 µL of cold MeOH was added to detach and lysate the cells; subsequently, cells were collected into lo‐bind Eppendorf and sonicated in ice for 10 min, then centrifuged for 15 min at 4°C at 14,000 rpm (Eppendorf Centrifuge 5430 R). The supernatant was collected and used for further analysis.
(§2) The apparent permeability P app (cm/s) of compounds was calculated from the following equation (Equation 1), while P app (cm/s) of the metabolites was calculated from the equation (Equation 2): (1) Papp=dQ/dt×1/C×1/A.
(§3) Equation (1) for calculating P app (cm/s) of tested reference compounds. (2) Papp=Metabolic cleareance/A.
(§4) Equation (2) for calculating P app (cm/s) of compound metabolites.
(§5) with Metabolic cleareance=Rate of metabolism/C and where dQ/dt is the rate of transport, C is the initial concentration in the donor compartment, and A is the surface area of the filter. To quantify the rate of transport, cumulative amounts of test compounds were plotted against time (min).
(§6) Efflux ratio was calculated using the following equation (Equation 3)^[ [48] ^]: (3) Efflux ratio=Papp(B−A)/Papp(A−B).

[2] = as above; format: in vitro ADME, canine; conditions: dog; Wt‐MDCK model; Papp(B−A)/Papp(A−B); N = 4; read-out: Efflux ratio (mean ± SD)
Protocol: as §1, §2, §3, §4, §5, §6

[3] = tested on: P‐gp; test: Rhodamine‐123 uptake assay, induction (48 h), differentiated Caco2 cells; format: cell-based, human; conditions: 2.5 to 10 µM, 48 h treatment
Protocol: P‐gp modulation was determined in differentiated Caco2 cells by Rh‐123 uptake assay.^[ [49] ^] In brief, cells in the logarithmic growth phase with 70%–80% confluency were harvested and seeded at a density of 2 × 10^4/well of a 96‐well plate. Cells were allowed to grow for 21 days in a CO2 incubator changing the medium every other day.
After treatment, cells were washed with Hank's buffer and 200 μL of phenol, and serum‐free DMEM/F12 medium containing […] of Rh‐123 was added and cells were incubated for 90 min. The final steps were as described previously.

[4] = molecular target: T1, BCRP (Homo sapiens, UniProt Q9UNQ0); test: Rhodamine‐123 uptake assay, cotreatment with elacridar, differentiated Caco2 cells; format: cell-based; conditions: at higher doses
T1 construct: performing the Rh‐123 uptake‐based efflux assay in the differentiated Caco2 cell line; endogenous in cells; host or cells: differentiated Caco2 cells (21 days)
T1 sequence (Q9UNQ0 1-655): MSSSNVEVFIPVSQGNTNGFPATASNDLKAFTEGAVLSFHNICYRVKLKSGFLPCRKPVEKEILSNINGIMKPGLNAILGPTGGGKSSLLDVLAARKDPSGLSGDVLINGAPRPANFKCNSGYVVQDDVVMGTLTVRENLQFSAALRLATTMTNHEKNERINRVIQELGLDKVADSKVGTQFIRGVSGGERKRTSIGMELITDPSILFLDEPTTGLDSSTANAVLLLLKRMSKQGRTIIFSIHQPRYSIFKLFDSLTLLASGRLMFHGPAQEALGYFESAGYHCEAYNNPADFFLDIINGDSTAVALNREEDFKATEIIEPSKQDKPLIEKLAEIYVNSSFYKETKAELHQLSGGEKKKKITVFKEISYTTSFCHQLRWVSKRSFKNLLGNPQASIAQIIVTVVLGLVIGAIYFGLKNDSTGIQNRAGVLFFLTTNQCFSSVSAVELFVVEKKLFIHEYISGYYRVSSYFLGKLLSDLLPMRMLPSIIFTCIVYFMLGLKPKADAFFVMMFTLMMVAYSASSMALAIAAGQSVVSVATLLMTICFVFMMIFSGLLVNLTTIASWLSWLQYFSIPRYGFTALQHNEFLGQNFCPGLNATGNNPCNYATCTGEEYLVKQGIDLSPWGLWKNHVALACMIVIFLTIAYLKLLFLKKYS

[5] = molecular target: T2, P‐gp (Homo sapiens, UniProt P08183); test: Rhodamine‐123 uptake assay, inhibition, differentiated Caco2 cells; format: cell-based; conditions: VL initial concentration 50 and 25 µM, 90 min
T2 construct: P‐gp modulation was determined in differentiated Caco2 cells by Rh‐123 uptake assay; endogenous in cells; host or cells: differentiated Caco2 cells (21 days)
T2 sequence (P08183 whole entry): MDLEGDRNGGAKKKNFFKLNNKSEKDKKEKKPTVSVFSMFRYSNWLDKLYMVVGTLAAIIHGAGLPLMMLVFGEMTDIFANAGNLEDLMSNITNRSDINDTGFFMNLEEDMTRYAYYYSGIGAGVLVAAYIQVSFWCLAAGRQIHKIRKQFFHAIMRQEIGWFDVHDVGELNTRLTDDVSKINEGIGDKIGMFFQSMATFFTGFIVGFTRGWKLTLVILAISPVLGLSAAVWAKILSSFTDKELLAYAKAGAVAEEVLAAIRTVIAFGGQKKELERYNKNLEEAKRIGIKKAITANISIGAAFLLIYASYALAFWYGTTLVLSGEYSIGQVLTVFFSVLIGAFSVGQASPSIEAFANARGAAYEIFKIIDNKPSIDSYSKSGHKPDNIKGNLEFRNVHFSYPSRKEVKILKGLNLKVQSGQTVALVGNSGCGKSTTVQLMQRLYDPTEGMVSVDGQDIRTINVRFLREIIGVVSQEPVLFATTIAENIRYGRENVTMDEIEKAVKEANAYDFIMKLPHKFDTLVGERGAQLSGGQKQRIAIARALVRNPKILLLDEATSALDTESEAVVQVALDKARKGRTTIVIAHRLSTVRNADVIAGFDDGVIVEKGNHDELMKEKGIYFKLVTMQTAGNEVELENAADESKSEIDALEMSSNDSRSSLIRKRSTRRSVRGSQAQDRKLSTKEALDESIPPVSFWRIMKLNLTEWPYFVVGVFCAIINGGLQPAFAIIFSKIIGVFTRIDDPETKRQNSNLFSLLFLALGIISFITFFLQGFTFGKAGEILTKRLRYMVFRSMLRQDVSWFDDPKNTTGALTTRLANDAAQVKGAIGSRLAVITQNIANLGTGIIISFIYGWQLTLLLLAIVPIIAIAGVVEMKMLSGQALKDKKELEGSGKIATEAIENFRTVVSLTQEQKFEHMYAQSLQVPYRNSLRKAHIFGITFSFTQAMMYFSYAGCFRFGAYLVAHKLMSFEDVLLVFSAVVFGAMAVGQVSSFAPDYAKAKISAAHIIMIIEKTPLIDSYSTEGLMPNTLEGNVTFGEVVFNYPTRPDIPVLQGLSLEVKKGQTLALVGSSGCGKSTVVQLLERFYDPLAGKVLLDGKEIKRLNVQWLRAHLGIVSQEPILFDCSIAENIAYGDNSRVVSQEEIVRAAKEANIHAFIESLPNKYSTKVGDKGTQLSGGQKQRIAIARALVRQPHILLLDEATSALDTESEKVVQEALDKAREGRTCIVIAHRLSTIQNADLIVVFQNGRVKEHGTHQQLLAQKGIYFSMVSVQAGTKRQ
Protocol: To evaluate P‐gp inhibition on day 21, the medium was removed and 200 μL Hank's salt solution was added, the plate was then incubated for 40 min. […] After treatment cells were washed three times with ice‐cold PBS, and 200 μL of lysis buffer (0.1% Triton X 100 and 0.2 N NaOH) was added. The plate was kept on a shaker for 2 h at room temperature, and 100 μL of lysate was used to measure the Rh‐123 fluorescence at 485/529 nm. Further, 10 μL of lysate was taken in a separate 96‐well plate, and 190 μL Bradford reagent was added. The plate was shaken for 5–10 min, and absorbance was measured at 595 nm. Each sample was normalized by dividing the fluorescence of each sample by the total proteins present in the lysate.^[ [46] ^]

[6] = In vitro transport study across 21‐day Caco2 monolayers; format: in vitro ADME, human; conditions: human, Caco-2, Caco2 model, N = 4
Protocol: as §1, §2, §3, §4, §5, §6

[7] = tested on: Caco2 monolayers; test: as above; format: in vitro ADME, human; conditions: Caco2 model, VL 50 μM dosed (VLS formed as metabolite), controls 10 μM, N = 4
Protocol: as §1, §2, §3, §4, §5, §6

P app B–A (mean ± SD) ([1]; secretory direction): 14.43 ×10⁻⁶ cm/s | efflux ratio at 120 min [2]: 0.843 ± 0.105 | Rh‐123 uptake in cotreatment with CsA 20 µM [5]: nonsignificant results | Papp A→B at 120 min ([6]; absorptive direction, VL 50 μM dosed (VLS formed as metabolite), controls 10 μM, read-out: P app A–B (mean ± SD)): 22.3 ×10⁻⁶ cm/s | Papp B→A at 120 min ([6]; secretory direction, VL 50 μM dosed (VLS formed as metabolite), controls 10 μM, read-out: P app B–A (mean ± SD)): 55.4 ×10⁻⁶ cm/s | efflux ratio at 120 min ([6]; Papp(B−A)/Papp(A−B), read-out: Efflux ratio (mean ± SD)): 2.35 ± 0.341 | P app A–B (mean ± SD) ([7]; absorptive direction): 22.25 ×10⁻⁶ cm/s | P app B–A (mean ± SD) ([7]; secretory direction): 55.35 ×10⁻⁶ cm/s
Structure (SMILES): O=C1CCC(Cc2ccc(O)c(OS(=O)(=O)O)c2)O1 (centres unmarked) [VLS, valerolactone sulfate]
P app A–B (mean ± SD) ([1]; absorptive direction): 17.33 ×10⁻⁶ cm/s and 173.3 ± 25 ×10⁻⁶ cm/s | P‐gp induction [3]: no significant data of P‐gp induction | effect on BCRP efflux transporter [4]: slightly activates the BCRP efflux transporter
